Results on four molecules are retold here after US11932649B1, “5-(3-substituted phenyl)-pyrimido[4,5-d]pyrimidine-2,4,7(1H,3H,8H)-trione derivatives as anticancer agents” (KING FAISAL UNIVERISTY, priority 2023, dated 2024).

As a reminder, the IC50 is the concentration that gives 50% inhibition. For orientation: melting point means the temperature of the solid-liquid transition.

Where two headings read alike, the source gives them in different places.

For data set [1], the system named is adeno carcinomic human alveolar basal epithelial cell line (A-549). Put plainly: Anticancer activity against human alveolar basal epithelial cell line A-549. The data set is classed as cell-based.
Data set [2] has as its system human breast cancer cell line (MCF-7). Put plainly: Anticancer activity against human breast cancer cell line MCF-7. In kind it is cell-based.

“5-(3-Hydroxy-4-methoxyphenyl)-1,3-dimethylpyrimido[4,5-d]pyrimidine-2,4,7(1H,3H,8H)-trione [Compound 4d]”: the IC50 in data set [1] is 186 nM; in data set [2], 10 nM.
`O=c1nc(-c2cccc(OCc3ccccc3)c2)c2c(=O)[nH]c(=O)[nH]c2[nH]1` [Compound 4a, 5-(3-(Benzyloxy)phenyl)pyrimido[4,5-d]pyrimidine-2,4,7(1H,3H,8H)-trione] returned a melting point of 186 to 188 °C. Moreover, the IC50 in data set [1] (A549) was 518 nM. Moreover, in data set [2] (MCF7), the IC50 came to 663 nM.
For the molecule `O=c1nc(-c2ccc(OCc3ccccc3)cc2)c2c(=O)[nH]c(=O)[nH]c2[nH]1` [Compound 4b, 5-(4-(Benzyloxy)phenyl)pyrimido[4,5-d]pyrimidine-2,4,7(1H,3H,8H)-trione], the melting point fell in the range of 142 to 144 °C. Also, the IC50 in data set [1] (A549) came to 82 nM. The IC50 in data set [2] (MCF7) worked out at 38 nM.
For the molecule `COc1ccc(-c2nc(=O)[nH]c3[nH]c(=O)[nH]c(=O)c23)cc1O` [Compound 4c, 5-(3-Hydroxy-4-methoxyphenyl)pyrimido[4,5-d]pyrimidine-2,4,7(1H,3H,8H)-trione], the melting point lay within 272 to 274 °C. The same molecule showed an IC50 in data set [1] (A549) of 461 nM. The molecule further returned an IC50 in data set [2] (MCF7) of 295 nM.
